Source: US20110046378A1, “Novel Imaging Agents for Detecting Neurological Dysfunction” (SIEMENS MEDICAL SOLUTIONS USA, INC., priority 2008, published 2011)
Like-named read-outs stand apart in the source and are kept apart here.

Columns and labels:
[1] = target: Aβ(1-42) Oligomers/Polymers (Homo sapiens, UniProt P05067); experiment: Biacore (SPR) screening on immobilized Aβ42 oligomers/soluble polymers; assay type: binding; parameters: Binding to oligomers/polymers (Aβ1-42): key to the marks not given beside the values; conditions: for BINDING LEVELS TO Aβ(1-42) Oligomers/Polymers: screening compounds at 10 uM; for Binding to oligomers/polymers (Aβ1-42): carbazole-based hits
Chain of Aβ(1-42) Oligomers/Polymers (P05067 672-713 limits assumed): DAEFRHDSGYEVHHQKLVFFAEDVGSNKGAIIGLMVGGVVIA

[2] = target: Aβ(1-42) Fibrils (Homo sapiens, UniProt P05067); experiment: Biacore (SPR) screening on immobilized Aβ42 fibrils; assay type: binding; conditions: for BINDING LEVELS TO Aβ(1-42) Fibrils: screening compounds at 10 uM; for Binding to fibrils (Aβ1-42): carbazole-based hits;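 as to BINDING LEVELS TO Aβ(1-42) Fibrils: minus means no binding and more plus signs mean higher affinity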
Chain of Aβ(1-42) Fibrils (P05067 672-713 limits assumed): as above

[3] = test system: Aβ monomer; conditions: read-out: Binding Affinity IC50; cited from earlier work
[4] = target: T1, Amyloid (AD patient's brain slice) (Homo sapiens, UniProt P05067); experiment: IC50 determination with [18F]-PiB by ex vivo competition assay using autoradiography staining; assay type: binding
T1 construct: The brain slices were 20 um thick
T1 sequence (P05067 672-711 limits assumed): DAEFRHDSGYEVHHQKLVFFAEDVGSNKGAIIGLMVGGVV
Source text: (§1) Ex Vivo Competition Assay Using Amyloid (AD patient's brain slice) Autoradiography Staining

[5] = test system: Amyloid (AD patient's brain slice); experiment: Amyloid autoradiography staining of AD patient's brain slices, grey/white matter binding with wash protocols; parameters: species or system human
Description: as §1
A study was conducted to examine the grey to white matter binding ratios for 4 different tracers: CB-001, CB-003, FDDNP and F-PiB (FIG. 7 and FIG. 8). […] After the human brain slices from AD patients were incubated with a given tracer for 30 min, the slices were washed with various EtOH:water solutions in an attempt to optimize the grey-to white matter ratios (FIG. 9). The results were surprising and unexpected in view of previous work performed by other researchers. CB-001 has a slightly higher c Log P than FDDNP (3.8 vs 3.4) and would be expected to have poorer washout than FDDNP based on these values. […] More specifically, the white matter binding of FDDNP is several shades darker than CB-001's white matter binding, indicating low non-specific binding of CB-001.

[6] = test system: Amyloid (AD brain slices); experiment: [18F]-CB001 competition studies on AD brain slices; assay type: binding, human; conditions: cold competitor, increasing concentrations
[7] = determination 1, vs [18F]-PiB, read-out: IC50 1
[8] = determination 3, vs [18F]-PiB, read-out: IC50 3
[9] = determination 5, vs [18F]-PiB, read-out: IC50 5
[10] = determination 6, vs [18F]-PiB, read-out: IC50 6
[11] = determination 13, vs [18F]-PiB, read-out: IC50 13
[12] = mean of determinations, vs [18F]-PiB, read-out: Average IC50
[13] = determination 4, vs [18F]-PiB, read-out: IC50 4
[14] = determination 7, vs [18F]-PiB, read-out: IC50 7

SMILES	BINDING LEVELS TO Aβ(1-42) Oligomers/Polymers [1]	BINDING LEVELS TO Aβ(1-42) Fibrils [2]	other results
Nc1ccc2[nH]c(C(F)(F)F)nc2c1	++	+	
O=c1cc(-c2ccccc2)oc2ccc(O)cc12	++	+	
O=c1cc(-c2ccccc2)oc2cc(O)ccc12	+	+	
O=c1c(O)c(-c2ccccc2)oc2ccc(O)cc12	+++	++	
O=c1c(O)c(-c2ccc(O)c(O)c2)oc2cc(O)ccc12	++++++	+++++	
COc1cccc2oc(-c3ccccc3)cc(=O)c12	+	−	
O=c1cc(-c2ccccc2)c2ccc(O)c(O)c2o1	+++++	+++	
Cc1c(-c2ccccc2)c(=O)oc2cc(O)ccc12	+	−	
Oc1cnc(Cl)c2ccccc12	+	−	
Cc1ccc(O)c(-c2ccno2)c1	+	+	
CC1NCCc2cc(O)c(O)cc21 (centres unmarked)	++	+	
Nc1ccc(O)c2ncccc12	++	+	
Cc1oc2cc(O)ccc2c(=O)c1-c1nncn1-c1ccccc1	++	+	
CCOc1ccc2c(=O)c(Oc3ccccc3)c(C)oc2c1	+	+	
CCOc1ccc(Oc2c(C)oc3cc(O)ccc3c2=O)cc1	+	−	
CCc1cc2c(=O)c(-c3ccc(F)cc3)c(C)oc2cc1O	+	−	
COc1ccc2c(=O)c(-c3ccccc3)c(C)oc2c1OC	+	−	
Cc1oc2c(C)c(O)ccc2c(=O)c1-c1nncn1-c1ccccc1	++	−	
O=c1c(O)c(-c2ccccc2)[nH]c2ccccc12	++++	++	
Cc1c(-c2ccccc2)oc2cc(O)ccc2c1=O	+	+	
COc1ccc2oc(-c3ccc(OC)c(OC)c3)c(OC)c(=O)c2c1	+++	+	
COc1cccc(-c2oc3cc(OC)ccc3c(=O)c2OC)c1	+	−	
O=c1c(O)c(-c2cccc(O)c2)oc2ccc(O)cc12	++++	++	
Cc1oc2cc(O)ccc2c(=O)c1-c1ccc(F)cc1	+	+	

SMILES	BINDING LEVELS TO Aβ(1-42) Oligomers/Polymers [1]	BINDING LEVELS TO Aβ(1-42) Fibrils [2]	other results
COc1c(-c2ccco2)oc2ccccc2c1=O	+	+	
Cc1cc(C)c2oc(-c3ccco3)c(O)c(=O)c2c1	+	−	
Cc1cc(C)c2oc(-c3cccs3)c(O)c(=O)c2c1	+	−	
Fc1ccc(-c2cn(-c3cccc(C(F)(F)F)c3)nn2)c(F)c1	+	+	
Fc1ccc(-c2cn(-c3ccc(Cl)c(Cl)c3)nn2)c(F)c1	+	−	
Fc1cc(F)cc(-c2cn(-c3cc(Cl)ccc3Cl)nn2)c1	+	−	
Fc1cc(F)cc(-c2cn(-c3ccc(F)cc3F)nn2)c1	++++	−	
Nc1cccc(-c2cn(-c3cc(Cl)cc(Cl)c3)nn2)c1	+	+	
C[S+]([O-])c1ccc(-c2nc(-c3ccc(F)cc3)c(-c3ccncc3)[nH]2)cc1 (centres unmarked)	++	+	
Oc1ccc(-c2nc(-c3ccncc3)c(-c3ccc(F)cc3)[nH]2)cc1	++	++	
Fc1ccc(-c2nc(-c3ccccc3)c(-c3ccccc3)[nH]2)cc1		−	
O=S(=O)(O)c1cccc2cccc(Nc3ccccc3)c12 [ANS]			IC50 [3]: > 100 µM
CNc1ccc2c(c1)[nH]c1cc(OCCOCCOCCF)ccc12 [CB-004, 7-(2-(2-(2-fluoroethoxy)ethoxy)ethoxy)-N-methyl-9H-carbazol-2-amine]			IC50 [4, 7]: 260 nM; IC50 [4, 8]: 350 nM; IC50 [4, 9]: 300 nM; IC50 [4, 10]: 300 nM; IC50 [4, 11]: 400 nM; IC50 [4, 12]: 322 nM
CN(C)c1ccc2c(c1)[nH]c1cc(OCCOCCOCCF)ccc12 [CB-007, 7-(2-(2-(2-fluoroethoxy)ethoxy)ethoxy)-N,N-dimethyl-9H-carbazol-2-amine]			IC50 [4, 7]: 260 nM; IC50 [4, 8]: 170 nM; IC50 [4, 9]: 200 nM; IC50 [4, 10]: 290 nM; IC50 [4, 11]: 300 nM; IC50 [4, 12]: 244 nM
O=CNc1ccc2c(c1)[nH]c1cc(OCCOCCOCCF)ccc12 [CB-010, N-(7-(2-(2-(2-fluoroethoxy)ethoxy)ethoxy)-9H-carbazol-2-yl)formamide]			IC50 [4, 13]: 900 nM; IC50 [4, 12]: 900 nM
O=CNc1ccc2c(c1)[nH]c1cc(OCCF)ccc12 [CB-012, N-(7-(2-fluoroethoxy)-9H-carbazol-2-yl)formamide]			IC50 [4, 13]: 610 nM; IC50 [4, 9]: 300 nM; IC50 [4, 10]: 450 nM; IC50 [4, 14]: 390 nM; IC50 [4, 12]: 438 nM
O=CNc1ccc2c(c1)[nH]c1cc(OCCOCCF)ccc12 [CB-024, N-(7-(2-(2-fluoroethoxy)ethoxy)-9H-carbazol-2-yl)formamide]			IC50 [4, 14]: 540 nM; IC50 [4, 12]: 540 nM
CC(=C(C#N)C#N)c1ccc2cc(N(C)CCF)ccc2c1 [FDDNP, reference compound]			Grey/white matter binding ratio using mild wash conditions ([5]; 30 min incubation, PBS, 30%/40%/20% EtOH:water, PBS, 20 um AD brain slices): Poor; Grey/white matter binding ratio using harsh FDDNP wash conditions ([5]; 30 min incubation, PBS, 70%/90%/70% EtOH:water, PBS, 20 um AD brain slices): Fair; order of (non-specific) white matter binding ([5]; AD brain slices): FDDNP>CB001>[18F]-PiB>CB003; blocking of [18F]-CB001 staining [6]: much less capable of blocking [18F]-CB001 staining
[11CH3]Nc1ccc(-c2nc3ccc(O)cc3s2)cc1 [PiB, reference compound]			blocking of [18F]-CB001 staining [6]: blocks [18F]-CB001 staining with increasing concentrations
Cc1nccc2c1[nH]c1cc(O)ccc12 [drawing 32]	++	+	
Oc1ccc2c(c1)[nH]c1ccccc12 [drawing 33]	+++	+	
Cc1nccc2c1[nH]c1cc(O)ccc12 [drawing 134]			Binding to oligomers/polymers (Aβ1-42) [1]: ++; Binding to fibrils (Aβ1-42) [2]: +
Oc1ccc2c(c1)[nH]c1ccccc12 [drawing 135]			Binding to oligomers/polymers (Aβ1-42) [1]: +++; Binding to fibrils (Aβ1-42) [2]: +
